Measurements as given in patent US12624020B2, “Compositions and methods for preparing and using azetidines” (University of Virginia Patent Foundation, priority 2018, dated 2026).
Entries after “also recorded” stand apart in the source; their conditions may differ.

Columns and labels:
[1] = system: Soluble and membrane HEK293T cell proteomes; assay: Gel assay (gel ABPP): protein binding, rhodamine CuAAC, SDS-PAGE fluorescence; set-up: species or system human; conditions: 25 μM, one hour
Procedure: (§1) FIG. 2. Structure activity relationship studies of some azetidine compounds of the present disclosure and their reactivity. Cell lysates were incubated with the indicate azetidine compounds for 1 hr for gel experiments and 3 hrs for LC-MS/MS experiments. Rhodamine or desthiobiotin tags were appended to the probe for gel and mass spectrometry experiments, respectively, by copper-catalyzed azide-alkyne cycloaddition, i.e., CLICK chemistry.
(§2) Continuing with the benzimidazole azetidine, we appended different alkyne tags via reductive amination or HATU coupling to observe the effects of N-substituents on the ring (Scheme 1 above). Soluble and membrane HEK293T cell proteomes were treated with 25 μM of azetidine compounds for one hour before addition of rhodamine via CLICK chemistry, i.e., copper catalyzed azide-alkyne cycloaddition (CuAAC). After the proteins were resolved via SDS-PAGE, we discovered a robust and unique binding profile from the azetidine probes (FIG. 2 and FIG. 3).

HEK lysates = assay: LC-MS/MS identification of azetidine-tagged proteins/peptides (desthiobiotin azide enrichment); format: binding, human
Procedure: as §1
Our initial attempts to enrich for azetidine-bound peptides were not optimal when we treated HEK lysates with only 25 μM of azetidine compound, illustrated by TH071. While we could easily observe protein bands by gel fluorescence, we were not saturating the proteome.
(§3) Next, isotopically labeled proteins were obtained through routine procedures using labeled amino acids, and the proteins were then reacted with TH071 for 3 hrs before click chemistry with desthiobiotin azide for 2 hours. Proteins were digested by trypsin into peptides before azetidine-bound peptides were enriched via affinity chromatography. Eluted peptides were analyzed by high resolution LC-MS/MS using a top 10 data-dependent acquisition (DDA). An added mass of 631.3858 Da was used to search for azetidine modifications to amino acid residues. Peptides were quantified between samples by measuring the integration of MS1 peaks between heavy and light peptides, and were sequenced by manual verification of MS2 fragmentation spectra. […] Sulfhydration modifications are a form of cysteine oxidation after the reaction with H2S to form a persulfide (S—SH).

[2] = target: recombinant mammalian DGKα (Rattus norvegicus, UniProt P51556); assay: LC-MS/MS enrichment of azetidine-bound peptides on recombinant DGKα; format: binding
Sequence of recombinant mammalian DGKα (P51556 whole entry): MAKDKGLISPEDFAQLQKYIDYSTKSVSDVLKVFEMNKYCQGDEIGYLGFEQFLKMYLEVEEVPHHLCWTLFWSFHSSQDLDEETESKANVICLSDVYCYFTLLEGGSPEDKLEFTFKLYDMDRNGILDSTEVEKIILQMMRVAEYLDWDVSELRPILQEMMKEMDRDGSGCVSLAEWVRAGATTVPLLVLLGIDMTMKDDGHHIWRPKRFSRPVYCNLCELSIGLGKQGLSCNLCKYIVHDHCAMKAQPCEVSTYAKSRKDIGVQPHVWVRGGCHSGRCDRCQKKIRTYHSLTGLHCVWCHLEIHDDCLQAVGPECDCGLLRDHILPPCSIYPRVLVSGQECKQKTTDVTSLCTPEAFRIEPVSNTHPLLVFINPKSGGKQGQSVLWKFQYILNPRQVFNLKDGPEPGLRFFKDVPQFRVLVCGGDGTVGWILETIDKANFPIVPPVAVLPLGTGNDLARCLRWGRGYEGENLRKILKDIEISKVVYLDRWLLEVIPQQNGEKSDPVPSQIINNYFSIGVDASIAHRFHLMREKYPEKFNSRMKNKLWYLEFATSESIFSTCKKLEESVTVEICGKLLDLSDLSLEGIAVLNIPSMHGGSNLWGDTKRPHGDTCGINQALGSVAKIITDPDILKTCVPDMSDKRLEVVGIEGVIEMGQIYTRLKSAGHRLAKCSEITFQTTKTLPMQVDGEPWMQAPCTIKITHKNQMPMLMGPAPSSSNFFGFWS
Procedure: as §3
Due to the lipophilic nature of azetidines, we also tested TH071 on recombinant mammalian DGKα and enriched for four peptides that were unique to this azetidine compound. Of these sites, two are located adjacent to the active site, one within the catalytic domain, and another in the zinc finger domain. […] DGKs […] the interconversion of diacylglycerol (DAG) to phosphatidic acid (PA). […]

DGK [3] = assay: Gel labeling of second DGK isoform by probe; format: binding; conditions: gel assay
Procedure: as §2
(§4) T-cells require endogenous H2S to activate and proliferate. Cystathionine β-synthase (CBS) and Cystathionine γ-lyase (CSE) are two proteins responsible for generating H2S, and previous studies have shown how knockdown of these proteins can drastically impair T-cell function. We initially tested if DGKα was affected by sulfur donors in a recombinant system. Thus, HEK293T cells expressing recombinant rat DGKα were treated with Na2S4 for 1 hr for luminescent ADP detection assay (ADP-Glo) and ABPP experiments. The activity of the rat isoform in our ADP-Glo™ assay (Promega Corporation) decreased by 40% at 10 μM 30% at 1 μM of the sulfur donor.

recombinant rat DGKα [4] = target: T1, recombinant rat DGKα (Rattus norvegicus, UniProt P51556); assay: ADP-Glo luminescent ADP detection assay; format: cell-based; conditions: 1 hr, HEK293T cells expressing recombinant rat DGKα
T1 construct: expressed in transfected cells; host or cells: HEK293T
T1 sequence (P51556 whole entry): as above
Procedure: as §4

recombinant rat DGKα [5] = target: T1, recombinant rat DGKα; assay: Competitive ABPP gel assay using TH071; format: binding; conditions: Na2S4 1 hr, TH071 as probe
Procedure: as §2, §4

DGK [6] = assay: Substrate assay (ADP-Glo) on second DGK isoform; format: cell-based; conditions: tested in a similar manner as DGKα
[7] = Evaluation of ring-opening under biological conditions with cysteine (LC-MS/MS); format: physicochemical; conditions: cysteine 1.5 mmol eq., 37° C., 24 hrs, PBS and DMF (5:1)
Procedure: (§5) An exemplary azetidine compound (RLM207) was dissolved in deuterated PBS with either cysteine (1.5 mmol eq.) or glutathione (1.5 mmol eq.), and incubated at 37° C. for 24 hrs in phosphate-buffered saline and DMF (5:1). To observe if any products formed between the RLM207 and biological nucleophiles, high-resolution LC-MS/MS was used to analyze the two reactions. Samples were desalted on a STAGE-Tip C^18 column and dissolved in mobile phase A (0.1% formic acid) for LC-MS/MS analysis. […] Thus, at 24.46 min, there appeared a peak with an M+1 mass of 547.2336 m/z corresponding to the covalent product.
(§6) Ring-opening reactions of azetidines typically employ harsh conditions that are not amenable to biological samples, such as strong acids and organic solvents^12-15. Our discovery was the first indication that azetidines form covalent products with a tripeptide.

[8] = Evaluation of ring-opening under biological conditions with glutathione (LC-MS/MS); format: physicochemical; conditions: glutathione 1.5 mmol eq., 37° C., 24 hrs, PBS and DMF (5:1), MS2
Procedure: as §5, §6

In the case of `C#CCCCN1CC(c2ccc(F)cc2)C1` [TH069], the “azetidine reactivity / protein binding (probe labeling) in gel assay” value (“azetidine reactivity / protein binding” for short) [1] is reported as “most reactive”.
For `C#CCCCN1CC(c2ccccc2F)C1` [TH071], the “azetidine reactivity / protein binding” value [1] was “most reactive; also recorded: could not recover probe labeling; also recorded: displayed the best reactivity”, the “enrichment of azetidine-bound peptides” value (HEK lysates; 25 μM, HEK lysates) was “not optimal” and the “identification of azetidine-tagged proteins by LC-MS/MS” value (HEK lysates; 0.5 mM TH071, 3 hrs, HEK lysates) was “identified multiple azetidine-tagged proteins”. The “residue type modified by the azetidine compound” value (HEK lysates; MS2 site localisation, FIG. 5) was “binds to cysteine residues”, the “number of enriched peptides unique to the azetidine compound” value [2] was “four” and the “probe labeling of DGK protein” value (DGK [3]) was “failed to label the protein”.
For `[Na+].[Na+].[S-]SS[S-]` [Na2S4], the “decrease of DGKα activity” value (recombinant rat DGKα [4]; 1 μM sulfur donor) was 30%, the “decrease of DGKα activity” value (recombinant rat DGKα [4]; 10 μM sulfur donor) was 40% and the “effect of sulfur donor on TH071 labeling of DGKα (competitive ABPP)” value (recombinant rat DGKα [5]) was “these results were recapitulated”. For the same molecule, the “effect on DGK activity in substrate assay” value (DGK [6]) was “showed no effect”.
In the case of `C#CCCCN1CCC1c1cccc(F)c1` (stereo not shown) [TH073], the “azetidine reactivity / protein binding” value [1] is reported as “could not recover probe labeling”.
For `C#CCCCN1CCC1c1ccccc1F` (stereo not shown) [TH074], the “azetidine reactivity / protein binding” value [1] was “could not recover probe labeling”.
In the case of `C#CCCCN1CC(c2cccc(F)c2)C1` [TH070], the “azetidine reactivity / protein binding” value [1] is reported as “least reactive”.
With `C#CCCCN1CC(c2nc3ccccc3[nH]2)C1` [RLM207] the “product formation between azetidine and cysteine” value [7] was “no change was observed” and the “product formation between azetidine and glutathione (ring-opening)” value [8] was “had bound to the cysteine of glutathione”.
